In US20090062337A1, “Treatment of Microbial Infections” (WYSIS TECHNOLOGY FOUNDATION, INC., priority 2007, published 2009):
Converted amounts (≈) assume the structure as drawn.

Test system: Burkholderia cepacia
Test: MIC against Burkholderia cepacia
Type: cell-based
Details: Table 2; comparison of compounds against Burkholderia cepacia

SMILES	MIC [µg/mL]
Oc1ccc2ccccc2n1 [2-hydroxyquinolone]	> 128
Nc1ccnc2ccccc12 [4-aminoquinoline]	40 (≈ 277 µM)
